Assays:
Type in all cases: in vivo
[1] = system: Amaranthus retoflexus (AMARE); experiment: Post-emergence herbicide glasshouse test; settings: 250 g/ha, sprayed after 8 days cultivation, evaluated after 13 days
Protocol: (§1) Seeds of a variety of test species (Abutilon theophrasti (ABUTH), Amaranthus retoflexus (AMARE), Echinochloa crus-galli (ECHCG), Ipomoea hederacea (IPOHE), Setaria faberi (SETFA)) are sown in standard soil in pots. After cultivation for one day (pre-emergence) or after 8 days cultivation (post-emergence) under controlled conditions in a glasshouse (at 24/16° C., day/night; 14 hours light; 65% humidity), the plants are sprayed with an aqueous spray solution derived from the formulation of the technical active ingredient in acetone/water (50:50) solution containing 0.5% Tween 20 (polyoxyethelyene sorbitan monolaurate, CAS RN 9005-64-5). Compounds are applied at 250 g/ha unless otherwise stated. The test plants are then grown in a glasshouse under controlled conditions in a glasshouse (at 24/16° C., day/night; 14 hours light; 65% humidity) and watered twice daily. After 13 days for pre- and post-emergence, the test is evaluated for the percentage damage caused to the plant. The biological activities are shown in the following table on a five-point scale (5=81-100%; 4=61-80%; 3=41-60%; 2=21-40%; 1=0-20%).

[2] = system: Echinochloa crus-galli (ECHCG); experiment: Post-emergence herbicide glasshouse test; settings: 250 g/ha, sprayed after 8 days cultivation, evaluated after 13 days
Protocol: as §1

[3] = system: Ipomoea hederacea (IPOHE); experiment: Post-emergence herbicide glasshouse test; settings: 250 g/ha, sprayed after 8 days cultivation, evaluated after 13 days
Protocol: as §1

Setaria faberi (SETFA) [4] = experiment: Post-emergence herbicide glasshouse test; settings: 250 g/ha, sprayed after 8 days cultivation, evaluated after 13 days
Protocol: as §1

[5] = system: Amaranthus retoflexus (AMARE); experiment: Pre-emergence herbicide glasshouse test; settings: 250 g/ha, sprayed after one day cultivation, evaluated after 13 days
Protocol: as §1

[6] = system: Echinochloa crus-galli (ECHCG); experiment: Pre-emergence herbicide glasshouse test; settings: 250 g/ha, sprayed after one day cultivation, evaluated after 13 days
Protocol: as §1

[7] = system: Ipomoea hederacea (IPOHE); experiment: Pre-emergence herbicide glasshouse test; settings: 250 g/ha, sprayed after one day cultivation, evaluated after 13 days
Protocol: as §1

Setaria faberi (SETFA) [8] = experiment: Pre-emergence herbicide glasshouse test; settings: 250 g/ha, sprayed after one day cultivation, evaluated after 13 days
Protocol: as §1

[9] = system: Abutilon theophrasti (ABUTH); experiment: Post-emergence herbicide glasshouse test; settings: 250 g/ha, sprayed after 8 days cultivation, evaluated after 13 days
Protocol: as §1

[10] = system: Abutilon theophrasti (ABUTH); experiment: Pre-emergence herbicide glasshouse test; settings: 250 g/ha, sprayed after one day cultivation, evaluated after 13 days
Protocol: as §1

Row | SMILES | percentage damage caused to the plant, AMARE [1] | percentage damage caused to the plant, ECHCG [2] | percentage damage caused to the plant, IPOHE [3] | percentage damage caused to the plant, SETFA (Setaria faberi (SETFA) [4]) | percentage damage caused to the plant, AMARE [5] | percentage damage caused to the plant, ECHCG [6] | percentage damage caused to the plant, IPOHE [7] | percentage damage caused to the plant, SETFA (Setaria faberi (SETFA) [8]) | percentage damage caused to the plant, ABUTH [9] | percentage damage caused to the plant, ABUTH [10]
1 | N#Cc1cccc(Oc2cc(C(F)(F)F)nn2-c2ncc(Cl)cn2)n1 [Compound 1.023] | 4 (4=61-80%) | 4 (4=61-80%) | 3 (3=41-60%) | 4 (4=61-80%) | 5 (5=81-100%) | 4 (4=61-80%) | 4 (4=61-80%) | 5 (5=81-100%) |  | 
2 | Fc1cnc(-n2nc(C(F)(F)F)cc2Oc2cccc(C(F)(F)F)n2)nc1 [Compound 1.024] | 2 (2=21-40%) | 1 (1=0-20%) | 1 (1=0-20%) | 1 (1=0-20%) | 5 (5=81-100%) | 1 (1=0-20%) | 1 (1=0-20%) | 1 (1=0-20%) |  | 
3 | COc1ccnc(-n2nc(C(F)(F)F)cc2Oc2cccc(OC(F)F)n2)n1 [Compound 1.026] | 3 (3=41-60%) | 1 (1=0-20%) | 1 (1=0-20%) | 1 (1=0-20%) | 4 (4=61-80%) | 1 (1=0-20%) | 1 (1=0-20%) | 1 (1=0-20%) | 1 (1=0-20%) | 2 (2=21-40%)
4 | FC(F)Oc1cccc(Oc2cc(C(F)(F)F)nn2-c2ncccn2)n1 [Compound 1.027] | 4 (4=61-80%) | 1 (1=0-20%) | 2 (2=21-40%) | 1 (1=0-20%) | 3 (3=41-60%) | 1 (1=0-20%) | 2 (2=21-40%) | 1 (1=0-20%) |  | 
5 | FC(F)Oc1cnc(-n2nc(C(F)(F)F)cc2Oc2cccc(OC(F)F)n2)nc1 [Compound 1.028] | 5 (5=81-100%) | 5 (5=81-100%) | 3 (3=41-60%) | 5 (5=81-100%) | 5 (5=81-100%) | 5 (5=81-100%) | 1 (1=0-20%) | 5 (5=81-100%) |  | 
6 | N#Cc1ccc(-n2nc(C(F)(F)F)cc2Oc2cccc(OC(F)F)n2)nc1 [Compound 1.029] | 5 (5=81-100%) | 1 (1=0-20%) | 3 (3=41-60%) | 1 (1=0-20%) | 4 (4=61-80%) | 2 (2=21-40%) | 1 (1=0-20%) | 2 (2=21-40%) |  | 
7 | N#Cc1cc(Cl)cnc1-n1nc(C(F)(F)F)cc1Oc1cccc(OC(F)F)n1 [Compound 1.030] | 3 (3=41-60%) | 1 (1=0-20%) | 1 (1=0-20%) | 2 (2=21-40%) | 2 (2=21-40%) | 1 (1=0-20%) | 1 (1=0-20%) | 1 (1=0-20%) |  | 
8 | Fc1cc(Cl)cnc1-n1nc(C(F)(F)F)cc1Oc1cccc(OC(F)F)n1 [Compound 1.031] | 4 (4=61-80%) | 1 (1=0-20%) | 1 (1=0-20%) | 2 (2=21-40%) |  | 1 (1=0-20%) | 1 (1=0-20%) | 2 (2=21-40%) |  | 
